In patent US6479509B1, “Method of promoting smoking cessation” (priority 2000, dated 2002):
Marks after values point to notes of the source that are not given here.

Assays:
[1] = tested on: discriminative stimulus effect of nicotine; assay: Nicotine drug discrimination; assay type: in vivo; details: rats
Experimental: Rats were individually housed in a temperature-controlled environment and were maintained on a diet (Agway Rodent Chow) that restricted their body weight to approximately 85% of their free feeding weight. Water was available ad libitum in the home cages. A two-lever operant drug nation paradigm (VI 15) was carried out in eight operant chambers (4 Lafayette model 80001 and 4 BRS/LVIE model s 002). Reinforcement was a Bioserv 45-mg precision dustless pellet. Data were collected automatically by two Commodore 64 microcomputers.
Rats were placed in an operant chamber 5 min after injections. […] Animals were required to meet a criterion of three successive days of 80% or greater correct-lever responding before testing was initiated. Injections were given 5 min before placing the animal in the operant chamber. The schedule of injections, was determined using a Latin Square design. Dose-response curves were determined for nicotine 5 min after s.c. injections.

[2] = tested on: nicotine-induced antinociception; assay: Blockade of nicotine-induced antinociception, tail-flick test; assay type: in vivo, mice
Experimental: Anitinociception. The tail-flick method of D'Amour and Smith (1941) as modified by Dewey et al. (1970) was used. A control response (2-4 s) was determined for each animal before treatment, and a test latency was determined after drug administration. To minimize tissue damage, a maximum latency of 10 s was imposed. Antinociceptive response was calculated as percent maximum possible effect (% MPE), where % MPE=[((test-control)/(10-control))×100], Groups of 8 to 12 animals were used for each dose and for each treatment. Mice were tested 5 min after nicotine administration for the dose-response evaluation. Antagonism studies were carried out by pretreating the mice s.c. with either saline or various drugs at different times before nicotine. The animals were tested 5 min after administration of nicotine.
(§1) Data were analyzed statistically by an analysis of variance followed by the Fisher's P least-significant difference multiple comparison test. The null hypothesis was rejected at the […].

[3] = tested on: nicotine-induced seizures; assay: Nicotine-induced seizure activity; assay type: in vivo, mice
Experimental: Seizure Activity. Following s.c. injection of nicotine at a dose of 9 mg/kg, each animal was placed in a 30 cm×30 cm Plexiglass cage and observed for 5 min. […] This amount of time was chosen because seizures occur very quickly after nicotine administration. Results are expressed as percentage seizure.

[4] = tested on: nicotine-induced motor impairment; assay: Blockade of nicotine-induced motor impairment, rotarod test; assay type: in vivo, mice; details: without nicotine
Experimental: Motor Coordination. To measure motor coordination, a wooden rod 6 cm in diameter was partitioned into three compartments by circular metal discs (28 cm in diameter) at 18-cm intervals. The rod was attached to a motor and rotated at a rate of 4 rpm. Naive mice were trained until they could remain on the rotarod for 3 min. […] This training took place no longer than 15 min before the s.c. administration of nicotine. Twenty minutes after the injection, mice were placed on the rotarod for 5 min. The amount of time the animals remained on the rotarod was recorded and percent impairment was calculated as % Impairment=[(]-(test time in s/300))×100]. An impairment value of 0% corresponds to the subjects that remained on the rotarod for 5 min (300 s), whereas 100% impairment corresponds to subjects, that fell off the rotarod immediately.
as §1

[5] = tested on: nicotine-induced hypothermia; assay: Blockade of nicotine-induced hypothermia (body temperature); assay type: in vivo, mice; details: @ 32 μmol/hg
Experimental: Body Temperature. Rectal temperature was measured by a thermistor probe (inserted 24 mm) and digital thermometer (Yellow Springs Instrument Co., Yellow Springs, Ohio). Readings were taken just before and at 30 min after the s.c. injection of nicotine. For antagonism studies, mice were pretreated with either saline or various drugs 10 min before nicotine. The difference in rectal temperature before and after treatment was calculated for each mouse. The ambient temperature of the laboratory varied from 21 to 24° C. from day to day.
as §1

[6] = tested on: cocaine-induced hyperactivity; assay: Locomotor activity, cocaine-induced hyperactivity; assay type: in vivo, mice; details: doses higher than 1 mg/kg
Experimental: Locomotor Activity. […] Interruptions of the photocell beams (two banks of eight cells each) were then recorded for the next 30 min. Data were expressed as number of photocell interruptions.

## CN1CCCC1c1cccnc1 (single isomer, unassigned; (-)) [Nicotine, (−)-Nicotine, reference compound]
[1]; saline pretreatment, nicotine 0.4 mg/kg
  Drug discrimination % Test (Mean ± SE): 87 ± 8%
[2]; Mus musculus, read-out: ED50 value of nicotine, antinociception
  ED50: 1.5 mg/kg
[3]; saline pretreatment, nicotine 9 mg/kg challenge
  % Seizures (Mean): 100%

## COC(=O)[C@H]1[C@@H](OC(=O)c2ccccc2)C[C@@H]2CC[C@H]1N2C [Cocaine]
[1]; cocaine 10 mg/kg pretreatment, nicotine 0.4 mg/kg
  Drug discrimination % Test (Mean ± SE): 69 ± 8%
[1]; saline pretreatment, cocaine 10 mg/kg
  Drug discrimination % Test (Mean ± SE): 17 ± 7%
[2]; blocking antinociception of nicotine 2.5 mg/kg, mice, systemic administration
  AD50 Tail-Flick: 3.2 μmol/hg
[3]; cocaine 10 mg/kg pretreatment, nicotine 9 mg/kg
  % Seizures (Mean): 83.3%
[3]; cocaine 20 mg/kg pretreatment, nicotine 9 mg/kg, P < .05 from saline/nicotine
  % Seizures (Mean): 50^c %
[3]; cocaine 30 mg/kg pretreatment, nicotine 9 mg/kg, P < .05 from saline/nicotine
  % Seizures (Mean): 16^c %
[3]; mice, estimated
  AD50, antagonism of nicotine-induced seizures: 50 µmol/kg
[3]; saline pretreatment, cocaine 20 mg/kg challenge
  % Seizures (Mean): 0%
[4]
  Performance on the rotarod test, by itself: did not significantly alter performance
[5]
  Hypothermia, % blockade @ dose: 20% @ 32

## CO[C@H]1CC=C2CCN3CCC4=C(CC(=O)OC4)[C@]23C1 [DHβE, Dihydro-β-erythroidine]
[6]
  Effect of higher doses on mouse spontaneous activity: significantly decreased mouse spontaneous activity

## CNC1(C)C2CCC(C2)C1(C)C (stereo not drawn) [mecamylamine]
[6]
  Effect of higher doses on mouse spontaneous activity: significantly decreased mouse spontaneous activity
